Data set [1] in a line: Chemical stability assessed as half life at pH 7.75. The data set is classed as physicochemical. The following applies: buffer.
The test system of data set [2] is SK-BR-3. As to the kind of experiment: Cytotoxicity against human SKBR3 cells after 72 hrs by celltiter-glo assay. The data set is classed as functional, cell-based. The conditions noted are these: Homo sapiens, SK-BR-3, 72 h. On the technique in general: In ATP-based viability assays light output follows the ATP content of the culture.
Data set [3] addresses Heat shock protein HSP 90-beta (Homo sapiens, UniProt P08238). Briefly: Binding affinity to human recombinant HSP90.
Data set [4] is described as follows: Dissociation constant, pKa of the compound. The data set is classed as physicochemical.
The test system of data set [5] is SK-OV-3. Briefly: Cytotoxicity against human SKOV3 cells after 72 hrs by celltiter-glo assay. The data set is classed as functional, cell-based. The following applies: SK-OV-3, 72 h.
Data set [6] has as its system A549. Briefly: Cytotoxicity against human A549 cells after 72 hrs by celltiter-glo assay. The conditions noted are these: A549, 72 h. The data set is classed as functional, cell-based.
The subject of data set [7] is MCF7. Briefly: Cytotoxicity against human MCF7 cells after 72 hrs by celltiter-glo assay. The data set is classed as functional, cell-based. The conditions noted are these: MCF7, 72 h.
Data set [8] deals with CCRF-CEM. Briefly: Cytotoxicity against human CCRF-CEM cells after 72 hrs by celltiter-96 aqueous one solution assay. The format is functional, cell-based.
In data set [9] the test system is CCRF-CEM. Briefly: Cytotoxicity against human paclitaxel-resistant CCRF-CEM cells after 72 hrs by celltiter-96 aqueous one solution assay. The data set is classed as functional, cell-based.

Some results are limits rather than exact numbers.

Heat shock protein HSP 90-beta, sequence (P08238 whole entry): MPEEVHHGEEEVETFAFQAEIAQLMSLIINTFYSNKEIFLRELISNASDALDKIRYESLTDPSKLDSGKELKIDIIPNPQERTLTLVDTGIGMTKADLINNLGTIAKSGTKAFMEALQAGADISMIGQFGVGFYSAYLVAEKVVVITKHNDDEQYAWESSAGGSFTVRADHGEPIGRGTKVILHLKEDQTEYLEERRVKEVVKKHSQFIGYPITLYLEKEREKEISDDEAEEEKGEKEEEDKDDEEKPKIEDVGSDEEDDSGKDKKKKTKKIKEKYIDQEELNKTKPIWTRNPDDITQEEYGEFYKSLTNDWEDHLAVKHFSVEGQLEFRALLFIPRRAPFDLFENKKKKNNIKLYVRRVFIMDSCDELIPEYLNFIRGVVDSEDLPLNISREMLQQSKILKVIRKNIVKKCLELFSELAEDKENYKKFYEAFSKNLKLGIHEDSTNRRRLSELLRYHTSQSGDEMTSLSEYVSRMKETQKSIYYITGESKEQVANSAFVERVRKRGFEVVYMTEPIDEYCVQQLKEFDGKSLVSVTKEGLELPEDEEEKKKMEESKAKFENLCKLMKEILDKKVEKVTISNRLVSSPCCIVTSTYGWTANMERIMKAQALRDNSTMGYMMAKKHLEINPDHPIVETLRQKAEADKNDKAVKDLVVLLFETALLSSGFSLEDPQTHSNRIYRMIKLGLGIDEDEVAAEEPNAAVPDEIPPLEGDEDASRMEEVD

For orientation: half-life means the time needed for the level to fall by half in the phase considered. The term IC50 denotes the concentration that inhibits the measured activity by half. A high value points to lower potency. The term Kd denotes the concentration at which binding is half-saturated. As for `COC1=C2C[C@@H](C)C[C@H](OC)[C@H](OC(=O)CN)[C@@H](C)/C=C(\C)[C@H](OC(N)=O)[C@@H](OC)/C=C\C=C(/C)C(=O)NC(=CC1=O)C2=O` (stereo in doubt), in [1], the half-life is 95 h. The compound also displayed an IC50 in data set [2] of 480 nM. Also, in [3], the Kd was above 25000 nM.

Broadly, the pKa is the pH at which an ionisable group is half protonated. A lower pKa goes with a group that gives up its proton readily. Compound `CO[C@H]1/C=C\C=C(/C)C(=O)NC2=CC(=O)C(NCCN(C)C)=C(C[C@@H](C)C[C@H](OC)[C@H](NCCF)[C@@H](C)/C=C(\C)[C@@H]1OC(N)=O)C2=O` (stereo in doubt) gave a pKa in data set [4] of 9. The compound also returned an IC50 in [2] of 390 nM. Moreover, the Kd in [3] is above 50000 nM.

In data set [4], `CO[C@H]1/C=C\C=C(/C)C(=O)NC2=CC(=O)C(NCCN(C)C)=C(C[C@@H](C)C[C@H](OC)[C@H](NCC(F)(F)F)[C@@H](C)/C=C(\C)[C@@H]1OC(N)=O)C2=O` (stereo in doubt) displayed a pKa of 5.7. Besides, half-maximal inhibition in data set [2] (IC50) required 270 nM. Moreover, the Kd in [3] turned out to be 4000 nM.

Compound `CO[C@H]1/C=C\C=C(/C)C(=O)NC2=CC(=O)C(NCCN(C)C)=C(C[C@@H](C)C[C@H](OC)[C@H](NCC(F)F)[C@@H](C)/C=C(\C)[C@@H]1OC(N)=O)C2=O` (stereo in doubt) registered a pKa in data set [4] of 7.5. For the same compound, the concentration for half-maximal inhibition (IC50) in data set [2] was 370 nM. Further, in data set [3], the Kd stood at 2900 nM.

For the compound `CO[C@H]1/C=C\C=C(/C)C(=O)NC2=CC(=O)C(NCCN(C)C)=C(C[C@@H](C)C[C@H](OC)[C@H](N)[C@@H](C)/C=C(\C)[C@@H]1OC(N)=O)C2=O` (stereo in doubt), the pKa in data set [4] amounted to 9.2. The compound also returned an IC50 in data set [2] of 415 nM. The Kd in data set [3] was above 25000 nM.

For `COC1=C2C[C@@H](C)C[C@H](OC)[C@H](OC(=O)CCCN)[C@@H](C)/C=C(\C)[C@H](OC(N)=O)[C@@H](OC)/C=C\C=C(/C)C(=O)NC(=CC1=O)C2=O` (stereo in doubt), the half-life in data set [1] was above 350 h. Also, the half-maximal inhibitory concentration (IC50) in [2] is above 1000 nM. For the same compound, the Kd in data set [3] was above 10000 nM.

The compound `CO[C@H]1/C=C\C=C(/C)C(=O)NC2=CC(=O)C(NCCN(C)C)=C(C[C@@H](C)C[C@H](OC)[C@H](NCCC(F)(F)F)[C@@H](C)/C=C(\C)[C@@H]1OC(N)=O)C2=O` (stereo in doubt) had a pKa in data set [4] of 8.9. Besides, in [2], the IC50 was 830 nM. Besides, the dissociation constant (Kd) in data set [3] is above 10000 nM.

Turning to `C=CCNC1=C2C[C@@H](C)C[C@H](OC)[C@H](OC(=O)CN)[C@@H](C)/C=C(\C)[C@H](OC(N)=O)[C@@H](OC)/C=C\C=C(/C)C(=O)NC(=CC1=O)C2=O` (stereo in doubt), the half-life in data set [1] was 78 h. The same compound registered a 50% inhibitory concentration (IC50) in data set [2] of 350 nM. Besides, the Kd in data set [3] is above 25000 nM.

For `COC1=C2C[C@@H](C)C[C@H](OC)[C@H](OC(=O)CCN)[C@@H](C)/C=C(\C)[C@H](OC(N)=O)[C@@H](OC)/C=C\C=C(/C)C(=O)NC(=CC1=O)C2=O` (stereo in doubt), in data set [1], the half-life was 200 h. In addition, inhibition in data set [2] was half-maximal at 1700 nM (IC50). In data set [3], the dissociation constant (Kd) is above 25000 nM.

`CO[C@H]1[C@@H](OC)C[C@H](C)CC2=C(NCCF)C(=O)C=C(NC(=O)/C(C)=C/C=C\[C@H](OC)[C@@H](OC(N)=O)/C(C)=C/[C@@H]1C)C2=O` (stereo in doubt): the IC50 in [5] was found to be 460 nM; in data set [6] it was 67 nM; in data set [7], 58 nM; in data set [2], 130 nM; in data set [8], 960 nM; in data set [9] it was 2700 nM. In data set [3], the Kd was 2300 nM.

With `CNCCNC1=C2C[C@@H](C)C[C@H](OC)[C@H](OC(=O)CN)[C@@H](C)/C=C(\C)[C@H](OC(N)=O)[C@@H](OC)/C=C\C=C(/C)C(=O)NC(=CC1=O)C2=O` (stereo in doubt), in data set [1], the half-life is 74 h. The midpoint of inhibition in data set [2], the IC50, lay at 340 nM. In addition, the Kd in data set [3] was above 25000 nM.

On to `C=CCNC1=C2C[C@@H](C)C[C@H](OC)[C@H](OC(=O)CCN)[C@@H](C)/C=C(\C)[C@H](OC(N)=O)[C@@H](OC)/C=C\C=C(/C)C(=O)NC(=CC1=O)C2=O` (stereo in doubt), for which the half-life in data set [1] is 130 h. Moreover, 1800 nM corresponded to half-maximal inhibition in data set [2] (IC50). For the same compound, the Kd in data set [3] is above 25000 nM.

On to `CO[C@H]1[C@@H](OC)C[C@H](C)CC2=C(NCCN(C)C)C(=O)C=C(NC(=O)/C(C)=C/C=C\[C@H](OC)[C@@H](OC(N)=O)/C(C)=C/[C@@H]1C)C2=O`, for which the 50% inhibitory concentration (IC50) in data set [5] came to 43 nM; in data set [6], 23 nM; in [7], 50 nM; in data set [2], 11 nM; in data set [8], 58 nM; in [9], 390 nM. Moreover, the Kd in data set [3] turned out to be 800 nM.

With `CO[C@H]1/C=C\C=C(/C)C(=O)NC2=CC(=O)C(NCCN(C)C)=C(C[C@@H](C)C[C@H](OC)[C@H](NCCN(C)C)[C@@H](C)/C=C(\C)[C@@H]1OC(N)=O)C2=O` (stereo in doubt), the pKa in data set [4] is 6. For the same compound, the half-inhibitory concentration (IC50) in data set [2] worked out at 460 nM. Besides, in [3], the Kd is above 50000 nM.

Values taken from ChEMBL document CHEMBL1138518 (J Med Chem, 2009).
